{"source": "patent US20100048462A1", "about": "“TRUNCATED PTH PEPTIDES WITH A CYCLIC CONFORMATION” (Zealand Pharma A/S, priority 2006, published 2010)", "key": {"ovariectomized rats": {"tested_on": "ovariectomized rats", "details": "cited from earlier work; for bone-anabolic activity: ovariectomized rats"}, "PTH1R": {"target": "T1, PTH1R (Homo sapiens, UniProt Q03431)", "T1 sequence (Q03431 27-593)": "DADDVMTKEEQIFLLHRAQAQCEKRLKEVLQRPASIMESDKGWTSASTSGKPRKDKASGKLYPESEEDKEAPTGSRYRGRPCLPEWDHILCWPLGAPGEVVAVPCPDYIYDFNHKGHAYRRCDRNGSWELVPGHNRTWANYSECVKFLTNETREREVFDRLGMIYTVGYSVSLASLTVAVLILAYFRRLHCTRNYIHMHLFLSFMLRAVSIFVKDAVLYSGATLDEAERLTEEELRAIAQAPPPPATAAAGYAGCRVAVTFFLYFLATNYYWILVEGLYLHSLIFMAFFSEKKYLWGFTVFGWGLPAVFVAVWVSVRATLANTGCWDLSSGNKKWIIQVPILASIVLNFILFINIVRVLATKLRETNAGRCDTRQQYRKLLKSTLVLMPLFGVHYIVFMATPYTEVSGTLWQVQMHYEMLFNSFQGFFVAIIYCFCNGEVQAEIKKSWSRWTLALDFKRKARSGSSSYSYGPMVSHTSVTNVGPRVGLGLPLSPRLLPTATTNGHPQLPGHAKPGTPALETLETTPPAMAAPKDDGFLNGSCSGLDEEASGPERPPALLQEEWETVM", "details": "cited from earlier work"}, "PTH receptor 1": {"target": "T2, PTH receptor 1 (Mus musculus, UniProt P41593)", "T2 construct": "host or cells: MC3T3-E1 subclone 4", "T2 sequence (P41593 27-591)": "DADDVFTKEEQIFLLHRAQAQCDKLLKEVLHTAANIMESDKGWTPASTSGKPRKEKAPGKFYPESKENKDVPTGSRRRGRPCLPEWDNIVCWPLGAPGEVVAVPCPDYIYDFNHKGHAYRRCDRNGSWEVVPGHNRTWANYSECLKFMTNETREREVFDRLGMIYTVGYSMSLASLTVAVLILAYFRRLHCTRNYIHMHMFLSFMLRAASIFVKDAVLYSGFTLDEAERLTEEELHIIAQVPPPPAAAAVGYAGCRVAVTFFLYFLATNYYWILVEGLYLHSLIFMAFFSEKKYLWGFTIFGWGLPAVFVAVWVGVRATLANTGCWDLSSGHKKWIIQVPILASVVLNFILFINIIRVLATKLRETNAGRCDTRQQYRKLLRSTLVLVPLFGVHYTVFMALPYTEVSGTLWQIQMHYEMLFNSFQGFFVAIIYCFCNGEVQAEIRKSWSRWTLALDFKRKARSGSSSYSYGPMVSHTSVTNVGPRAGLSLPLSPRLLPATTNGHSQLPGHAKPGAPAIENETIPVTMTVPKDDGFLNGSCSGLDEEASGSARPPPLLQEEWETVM", "test": "MC3T3-E1 cAMP efficacy assay", "format": "cell-based, murine", "details": "MC3T3-E1 cells; for EC50: 100 μM IBMX, 37° C.; for Emax ± SEM [pmol/well]: maximally inducible cAMP", "description": "MC3T3-E1 cells were seeded at 10,000 cells/well in 96-microtiter plates and grown overnight before the efficacy assays. On the day of analysis the growth medium was carefully removed by suction. Cells were washed once with 200 μl TB/0.1% […]. The buffer was replaced with 100 μl reaction mixture (±test peptide, +100 μM IBMX) and incubated at 37° C. for 13 min. The reaction was stopped by addition of 25 μl of ice-cold 0.5 M HCl. Cells were in the following incubated on ice for 60 min. 75 μl acetate-buffer were added to each well in a 96-well cAMP FlashPlate. […] FlashPlates were incubated overnight at 4° C., emptied by suction and counted in a TopCounter.\nDeterminations were performed in triplicates at all doses. Standards were included as single determinations, duplicates or triplicates in each experiment, preferentially on each plate.\nEfficacy was evaluated in the concentration range from […].\nConcentration-dependent cAMP responses were imported into GraphPad Prism vers. 4, transformed and plotted. Curves were fitted with a function for sigmoidal dose response curve non-linear fit Y=Bottom+(Top-Bottom)/(1+10̂((LogEC50-X))) where X is the logarithm of concentration and Y is the response. Y starts at Bottom and goes to Top with a sigmoid shape. pEC50 and the maximally inducible concentration of cAMP were evaluated. Overall statistical differences were analyzed using one-way ANOVA. Post-hoc comparisons were made by the use of Fisher's Least Significance Test. Results were considered significant, when p was lower than 0.05."}, "Saos-2 PTH1R": {"target": "T3, Saos-2 PTH1R (Homo sapiens, UniProt Q03431)", "T3 construct": "endogenous in cells; host or cells: Saos-2", "T3 sequence (Q03431 27-593)": "T1 sequence (Q03431 27-593)", "test": "cAMP-efficacy assay in Saos-2 cells", "format": "cell-based", "details": "for potency compared to linear / non-stabilized counterparts, in words / EC50: cAMP; for EC50: 100 μM IBMX, 37° C. 15 min, suffix of label = salt tested; for Emax ± SEM: relative effect to the control (SEQ ID NO: 32)", "procedure,_shortened": "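Saos-2 cells, grown two days after seeding at 50,000 cells/well, were exposed to peptide for 15 min at 37 °C in Tyrode's buffer with 0.1% BSA and 100 μM IBMX. After stopping with cold HCl, cAMP was measured by radioimmunoassay FlashPlate. EC50, pEC50, Hill slope and Emax came from a four-parameter sigmoidal fit.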"}, "CYP2D6": {"target": "CYP2D6 (Homo sapiens, UniProt P10635)", "sequence (P10635 whole entry)": "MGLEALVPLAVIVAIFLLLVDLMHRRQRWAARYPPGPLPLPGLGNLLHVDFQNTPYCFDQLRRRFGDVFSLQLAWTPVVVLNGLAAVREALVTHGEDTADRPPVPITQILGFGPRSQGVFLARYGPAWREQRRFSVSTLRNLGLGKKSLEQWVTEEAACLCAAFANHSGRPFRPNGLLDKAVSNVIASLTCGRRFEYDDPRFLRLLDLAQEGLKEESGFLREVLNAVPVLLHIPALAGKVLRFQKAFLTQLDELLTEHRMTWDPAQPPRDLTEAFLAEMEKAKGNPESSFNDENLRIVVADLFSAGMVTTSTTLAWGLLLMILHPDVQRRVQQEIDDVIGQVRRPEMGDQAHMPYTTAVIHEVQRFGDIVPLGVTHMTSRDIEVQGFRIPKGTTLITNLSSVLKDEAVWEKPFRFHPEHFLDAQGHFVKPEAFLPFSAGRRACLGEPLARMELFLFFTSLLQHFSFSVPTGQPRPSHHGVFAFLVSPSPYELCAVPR", "test": "CYP2D6 inhibition in pooled human liver microsomes", "format": "in vitro ADME", "parameters": "Pooled human liver microsomes (HLM, final concentration 0.05 mg protein/mL); tissue BD Biosciences 452161; host or cells: pooled human liver microsomes", "details": "10 μM compound, dextrorphan formation rate", "procedure,_shortened": "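Pooled HLM (0.05 mg/mL) in 0.1 M KPi pH 7.4 with 5 μM dextromethorphan and 10 μM test compound, preincubated 5 min at 37 °C, then started with NADPH-regenerating system for 5 min. Dextrorphan quantified by LC/MS/MS; activity expressed as % of vehicle; <70% considered significant.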"}}, "note": "“Also recorded” adds a separate entry of the source. Bridge positions count the residues as written; N and C are the ends. Square brackets hold non-standard residues; d marks the D form. Peptide text beside a SMILES is read from it. hArg = N=C(N)NCCCC[C@H](N)C(=O)O; Ac5c = NC1(C(=O)O)CCCC1; Aib = CC(C)(N)C(=O)O"}
{"compound": "[Aib^1.3, Phe^7, Nle^8, Arg^11, Ala^12, Trp^14]PTH(1-14)", "values": [{"measurement": "bone-anabolic activity", "setting": "ovariectomized rats", "value": "did not exhibit any bone-anabolic activity"}, {"measurement": "activation of the PTH1R in vitro", "setting": "PTH1R", "value": "activated the PTH1R in vitro"}]}
{"compound": "[Ala^1.3, Nle^8, Gln^10, Har^11, Trp^14, Arg^19, Tyr^21]rPTH(1-21) [MPTH(1-21)]", "values": [{"measurement": "bone-anabolic activity", "setting": "ovariectomized rats", "value": "inactive"}]}
{"compound": "PTH(1-29): truncated PTH fragment from the literature (Murrills et al. 2004) (SVSEIQLMHNLGKHLNSMERVEWLRKKLQ; Parathyroid hormone; UniProt P01270 32-60, looked up, fragment)", "values": [{"measurement": "bone-anabolic activity, fold less potent than PTH(1-34)", "setting": "ovariectomized rats; ovariectomized rat model", "value": "approximately 20 fold"}]}
{"compound": "CC[C@H](C)[C@H](NC(=O)[C@H](CCC(=O)O)NC(=O)C(C)(C)NC(=O)[C@@H](NC(=O)C1(N)CCCC1)C(C)C)C(=O)N[C@@H](CCC(N)=O)C(=O)N[C@@H](CC(C)C)C(=O)N[C@@H](CCSC)C(=O)N[C@@H](Cc1c[nH]cn1)C(=O)N[C@@H](CCC(N)=O)C(=O)N[C@@H](CCCCNC(=N)N)C(=O)N[C@@H](C)C(=O)N[C@H]1CCCCNC(=O)C[C@@H](C(N)=O)NC(=O)[C@H](CC(N)=O)NC(=O)[C@H](CC(C)C)NC(=O)[C@H](Cc2c[nH]c3ccccc23)NC1=O", "note": "[SEQ ID NO: 2, H-Ac5c-Val-Aib-Glu-Ile-Gln-Leu-Met-His-Gln-Har-Ala-Lys( )Trp-Leu-Asn-Asp( )-NH2] (H-[Ac5c]V[Aib]EIQLMHQ[hArg]AKWLND-NH2; lactam 13-17)", "values": [{"measurement": "potency comparison in words", "setting": "PTH receptor 1; cAMP", "value": "EC50 comparable to PTH(1-34); also recorded: significantly more potent than SEQ ID NO: 31, SEQ ID NO: 3 and SEQ ID NO: 42"}, {"measurement": "EC50", "setting": "PTH receptor 1; cAMP", "value": 1, "unit": "nM"}, {"measurement": "Emax ± SEM [pmol/well]", "setting": "PTH receptor 1", "value": "4.9 ± 0.8", "unit": "pmol/well"}, {"measurement": "potency compared to linear / non-stabilized counterparts, in words", "setting": "Saos-2 PTH1R", "value": "significantly higher potency"}, {"measurement": "potency compared to linear / non-stabilized counterparts, in words", "setting": "Saos-2 PTH1R; listed as 2", "value": "increased potencies"}, {"measurement": "potency compared to linear / non-stabilized counterparts, in words", "setting": "Saos-2 PTH1R; listed as SEQ ID NO:2", "value": "significantly higher potency"}, {"measurement": "CYP2D6 activity (% of vehicle)", "setting": "CYP2D6", "value": "67 % of vehicle"}]}
{"compound": "CC[C@H](C)[C@H](NC(=O)[C@H](CCC(=O)O)NC(=O)C(C)(C)NC(=O)[C@@H](NC(=O)C1(N)CCCC1)C(C)C)C(=O)N[C@@H](CCC(N)=O)C(=O)N[C@@H](CC(C)C)C(=O)N[C@@H](CCSC)C(=O)N[C@@H](Cc1c[nH]cn1)C(=O)N[C@@H](CCC(N)=O)C(=O)N[C@@H](CCCCNC(=N)N)C(=O)N[C@@H](C)C(=O)N[C@@H](CCCCN)C(=O)N[C@@H](Cc1c[nH]c2ccccc12)C(N)=O", "note": "[SEQ ID NO: 31, H-Ac5c-Val-Aib-Glu-Ile-Gln-Leu-Met-His-Gln-Har-Ala-Lys-Trp-NH2, reference compound] (H-[Ac5c]V[Aib]EIQLMHQ[hArg]AKW-NH2)", "values": [{"measurement": "EC50", "setting": "PTH receptor 1; cAMP", "value": 3.98, "unit": "nM"}, {"measurement": "Emax ± SEM [pmol/well]", "setting": "PTH receptor 1", "value": "4.5 ± 1.0", "unit": "pmol/well"}, {"measurement": "EC50", "setting": "Saos-2 PTH1R", "value": 21.9, "unit": "nM"}, {"measurement": "Emax ± SEM", "setting": "Saos-2 PTH1R", "value": "1.07 ± 0.04"}, {"measurement": "CYP2D6 activity (% of vehicle)", "setting": "CYP2D6", "value": "22 % of vehicle"}]}
{"compound": "CC[C@H](C)[C@H](NC(=O)[C@H](CCC(=O)O)NC(=O)C(C)(C)NC(=O)[C@@H](NC(=O)C1(N)CCCC1)C(C)C)C(=O)N[C@@H](CCC(N)=O)C(=O)N[C@@H](CC(C)C)C(=O)N[C@@H](CCSC)C(=O)N[C@@H](Cc1c[nH]cn1)C(=O)N[C@@H](CCC(N)=O)C(=O)N[C@@H](CCCCNC(=N)N)C(=O)N[C@@H](C)C(=O)N[C@H]1CCCCNC(=O)C[C@@H](C(N)=O)NC(=O)[C@H](CC(C)C)NC(=O)[C@H](Cc2c[nH]c3ccccc23)NC1=O", "note": "[SEQ ID NO: 30, H-Ac5c-Val-Aib-Glu-Ile-Gln-Leu-Met-His-Gln-Har-Ala-Lys( )-Trp-Leu-Asp( )-NH2] (H-[Ac5c]V[Aib]EIQLMHQ[hArg]AKWLD-NH2; lactam 13-16)", "values": [{"measurement": "EC50", "setting": "PTH receptor 1; cAMP", "value": 10, "unit": "nM"}, {"measurement": "Emax ± SEM [pmol/well]", "setting": "PTH receptor 1", "value": "5.0 ± 0.2", "unit": "pmol/well"}, {"measurement": "EC50", "setting": "Saos-2 PTH1R", "value": 81.3, "unit": "nM"}, {"measurement": "Emax ± SEM", "setting": "Saos-2 PTH1R", "value": "1.04 ± 0.05"}, {"measurement": "CYP2D6 activity (% of vehicle)", "setting": "CYP2D6", "value": "83 % of vehicle"}]}
